Measured values: patent publication US6777435B1, “Crystals of an oxyiminoalkanoic acid derivative and their use as antidiabetics” (Takeda Chemical Industries, Ltd., priority 1999, dated 2004)

Key:
Wistar fatty rats = test: Hypoglycemic and hypolipidemic actions in rats; type: in vivo; conditions: 1 mg/kg/day orally for seven days, percentage reduction compared with non-treatment group
Experimental: Crystals of the test compound were suspended in an amount of 1 mg/5 ml in a 0.5% methyl cellulose solution and compulsorily administered orally at the dose of 1 mg/kg/day to Wistar fatty rats (27-30 weeks old; five rats in a group), a model of obesity and type 2 diabetes mellitus, for seven days successively. During that period, diet and water were given freely. Blood was sampled from tail vein and measurement of the components was carried out using serum. Glucose was quantified using L-type Wako Glu2 (Wako Pure Chemicals) while triglyceride was quantified using L-type Wako TG.H (Wako Pure Chemical). The value of treatment group is represented as percentage reduction compared with the non-treatmet group.

KKA^γ mice = test: Hypoglycemic and hypolipidemic actions in mice; type: in vivo; conditions: 0.01% in powdery diet for four days, percentage reduction compared with non-treatment group
Experimental: Crystals of the test compound were mixed in a powdery diet (CE-2; Japan Clea) at a concentration of 0.01%, and freely given to KKA^γ mice (11 weeks old; five mice in a group), a model of obesity and type 2 diabetes mellitus, for four days. During that period, water was given freely. Blood was sampled from orbital venous plexus and measurement of the components was carried out using serum. Glucose was quantified using L-type Wako Glu2 (Wako Pure Chemicals) while triglyceride was quantified using Iatro-MA701 TG kit (Iatron Laboratories Inc.). The value of treatment group is represented as percentage reduction compared with the non-treatmet group.

Compound | Hypoglycemic Action (%) (Wistar fatty rats; serum glucose) | Hypolipemic Action (%) (Wistar fatty rats; serum triglyceride) | Hypoglycemic Action (%) (KKA^γ mice; serum glucose) | Hypolipemic Action (%) (KKA^γ mice; serum triglyceride)
Cc1oc(-c2ccccc2)nc1COc1ccc(CO/N=C(\CCC(=O)O)c2ccccc2)cc1 [Crystals of Example 1, (E)-4-[4-(5-methyl-2-phenyl-4-oxazolylmethoxy)benzyloxyimino]-4-phenylbutyric acid] | 60% | 85% | – | –
Cc1oc(-c2ccccc2)nc1COc1ccc(CO/N=C(\CCC(=O)O)c2ccccc2)cc1 [Crystals of Reference Example 4, (E)-4-[4-(5-methyl-2-phenyl-4-oxazolylmethoxy)benzyloxyimino]-4-phenylbutyric acid] | – | – | 42% | 61%
